Assay results reported in patent publication US20220273658A1, “SMALL MOLECULE LIVER X RECEPTOR MODULATORS AND USES THEREOF” (University of Houston System, priority 2019, published 2022).

Key:
MDSC and CD8+ T-cells = details: in vivo; cited from earlier work
PDAC cell lines [1] = test: clonogenic assay, colony formation; type: cell-based, human; details: long-term treatment, each cell line
Procedure: (§1) To determine the effects of LXR ligands on PDAC cell proliferation, cells were treated with synthetic LXR agonist GW3965 and live cells were quantified using trypan blue exclusion assays. […] FIGS. 8A, 8B, and 8C show dose-dependent decreases in cell proliferation in BxPC-3, Mia-PaCa-2, and PANC-1, respectively upon treatment with increasing GW3965 concentrations. […] Clonogenic assays were also employed to evaluate the effects of long-term LXR ligand treatment on cell proliferation and colony formation. […] These findings indicate that LXRs are involved in PDAC cell proliferation and targeting LXRs with ligands perturb their normal functions in cell proliferation.

[2] = pre-clinical testing; cited from earlier work
PDAC cell lines [3] = test: MTS assay of overall cell metabolic rate; type: cell-based, human; details: increasing concentrations of GW3965
PDAC cell lines [4] = test: tetrazolium salt reduction (WST) assay in PDAC cell lines; type: cell-based, human; details: GW3965, WST assay
Procedure: as §1
(§2) The initial identification and subsequent characterization of the two novel LXR ligands and their derivative compounds was carried out in screens in three human pancreatic cancer cell and one non-transformed human pancreatic epithelial cell line in three or more replicate experiments for each cell line using the WST tetrazolium salt reduction assays.

[5] = test system: LXR target genes SREBF1c, ABCA1, and ABCG1; test: expression of LXR target genes in pancreatic cancer cell lines; type: cell-based, human; details: for expression of LXR target genes: three pancreatic cancer cell lines
From the text: To characterize the activity of the newly discovered ligands, the expression of LXR target genes SREBF1c, ABCA1, and ABCG1 was examined following treatment with vehicle, synthetic agonist GW3965, and Compounds 1E5 and 3A4. […] Basal expression of SREBF1c, the canonical LXR target gene involved in the regulation of glucose and lipid metabolism, was disrupted by the addition of novel LXR ligands, whereas their expression was induced following treatment with synthetic agonist GW3965 in all three pancreatic cancer cell lines tested, whereas the effects on ABCA1 and ABCG1 varied between the two novel ligands and across the cell lines.
(§3) To elucidate mechanisms of inverse agonism by the novel ligands, TR-FRET experiments were conducted to determine the effects of 1E5 and 3A4 on the recruitment of NR co-activators and co-repressors. […] In addition to their functions as inverse agonists, extended treatments with 1E5 and 3A4 also destabilized or decreased LXR proteins.

[6] = test system: BxPC-3, Mia-PaCa-2, and PANC-1; test: cell proliferation, live cells quantified by trypan blue exclusion; type: cell-based, human; details: increasing GW3965 concentrations; all three cell lines
Procedure: as §1

[7] = test system: myeloid-derived suppressor cells (MDSCs); details: in vivo; cited from earlier work
BxPC-3-luc2 cells = test: orthotopic xenograft mouse model of pancreatic cancer; type: in vivo
From the text: Data from studies using cultured cancer cell lines indicate that LXR agonists have anti-proliferative effects on PDAC cells by disrupting cell cycle progression and expression of key regulatory proteins and growth pathways. To determine the effects of ligands in vivo using a live imaging system, BxPC-3 cells engineered with […] firefly luciferase gene (BxPC-3-luc2) were obtained from a commercial source (Perkin Elmer) and then validated for luciferase expression and response to GW3965 treatment in culture. […] NCr athymic nude mice (n=5 per treatment group) were orthotopically injected with BxPC-3-luc2 cells and then gavaged daily with GW3965 dissolved in 0.5% methylcellulose or vehicle only. Animals were anesthetized, injected with luciferin, and imaged weekly to monitor and quantify tumor growth. […] Experiments were terminated after two weeks due to the morbidity associated with the tumor burden in test animals. […] Statistically significant differences in additive effects as compared to single compound treatments are denoted with asterisks.

PDAC cells [8] = test: treatment of PDAC cells with KD-01-39 (FIG. 32); type: cell-based, human; details: all cancer lines tested
From the text: (§4) The synthesis and characterization of KD-01-39, a derivative of 3A4, have not been described previously.

KPC tumor cells = test: growth of KPC tumor cells from mouse model of PDAC; type: cell-based
From the text: The effects of the ligands and derivatives on the growth of PDAC cells were further validated by cell counting and clonogenic assays.

HPNE cells = test: growth of non-transformed pancreatic epithelial cells (WST screen; FIG. 32D); type: cell-based, human; details: FIG. 32(D)
Procedure: as §2, §4

[9] = test system: LXR ligand-binding domain; test: TR-FRET assay of co-activator and co-repressor peptide recruitment; type: biochemical
Procedure: as §3, §4

LXR-LBD = test: differential scanning fluorimetry; type: binding
From the text: as §4

PDAC cells [10] = test: cell viability with glutaminase inhibitor BPTES and 1E5; type: cell-based, human; details: BPTES alone
From the text: TCA cycle intermediates act as anaplerotic substrate for gluconeogenesis and lipogenesis. […] GOT2 converts glutamine-derived glutamate to alpha-KG. During this process oxaloacetate is converted to aspartate which is required to maintain redox homeostasis. Studies have shown that inhibition of GOT2 in PDAC promotes senescence.

PDAC = PDAC patients; cited from earlier work

Cc1cc(C)c(S(=O)(=O)N(CCc2cccc(Br)c2)Cc2ccc(-c3cccc(S(C)(=O)=O)c3)cc2)c(C)c1 [SR9243]
MDSC recruitment to tumors (MDSC and CD8+ T-cells): decreased MDSC recruitment to tumors | expansion and recruitment of tumor-killing CD8+ T-cells (MDSC and CD8+ T-cells): increased the expansion and recruitment

O=C(O)Cc1cccc(OCCCN(Cc2cccc(C(F)(F)F)c2Cl)CC(c2ccccc2)c2ccccc2)c1 [GW3965]
colony formation (PDAC cell lines [1]): strongly inhibited colony formation | circulating and liver triglyceride levels [2]: increased circulating and liver triglyceride levels | overall metabolism (MTS) (PDAC cell lines [3]): dose-dependent drop in overall metabolism | growth of PDAC cell lines (PDAC cell lines [4]): suppressed the growth of PDAC cell lines in a dose-dependent manner | basal expression of SREBF1c ([5]; all three pancreatic cancer cell lines): induced | expression of LXR target genes [5]: increased target gene expression | cell proliferation [6]: significantly inhibited | anti-tumor effects of PD-1 inhibitor immunotherapy [7]: enhanced the anti-tumor effects of PD-1 inhibitor immunotherapy | recruitment and apoptosis of immunosuppressive MDSCs [7]: blocked the recruitment and increased apoptosis | tumor growth (luciferase signal) (BxPC-3-luc2 cells; 40 mg/kg and 80 mg/kg, daily gavage, one and two weeks): reduced tumor growth | tumor size, post-mortem examination (BxPC-3-luc2 cells; control vs treated animals): significant differences in tumor size | bioavailability following ingestion (BxPC-3-luc2 cells; daily gavage): confirmed the bioavailability | toxicity following ingestion (BxPC-3-luc2 cells; mouse, in vivo): low toxicity

COc1cc(OC)cc(C(=O)N2CCN(c3ccccc3Br)CC2)c1 [KD-01-39]
expression of LXR target genes [5]: decreased the expression of LXR target genes | efficacy against cancer lines compared with 3A4 (PDAC cells [8]): same or similar efficacy as 3A4 | growth of KPC tumor cells (KPC tumor cells): inhibition of pancreatic cancer cells | effect on non-cancerous pancreatic HPNE cells (HPNE cells): minimal effect | co-activator peptide binding to LXR ligand-binding domain ([9]; co-activator (D22) peptide): did not affect recruitment of co-activator peptides | binding of NCOR and SMRT co-repressor peptides ([9]; co-repressor (NCOR and SMRT-ID2) peptides): enhanced recruitment of NCOR and SMRT co-repressor peptides in a dosage dependent manner | LXR-LBD structure and dye dissociation with increasing temperature (LXR-LBD): disrupted the LBD structure

C[C@H](CCOc1cccc(CC(=O)O)c1)N(Cc1cccc(C(F)(F)F)c1Cl)CC(c1ccccc1)c1ccccc1 [RGX-104]
anti-tumor effects of PD-1 inhibitor immunotherapy [7]: enhanced the anti-tumor effects of PD-1 inhibitor immunotherapy | recruitment and apoptosis of immunosuppressive MDSCs [7]: blocked the recruitment and increased apoptosis

O=C(Cc1ccccc1)Nc1nnc(CCSCCc2nnc(NC(=O)Cc3ccccc3)s2)s1 [BPTES, reference compound]
pancreatic cancer cell viability (PDAC cells [10]): reduced pancreatic cancer cell viability

Nc1ccn([C@@H]2O[C@H](CO)[C@@H](O)C2(F)F)c(=O)n1 [gemcitabine]
improvement of median survival (PDAC): approximately two weeks

O=S(=O)(c1ccccc1)N(CC(F)(F)F)c1ccc(C(O)(C(F)(F)F)C(F)(F)F)cc1 [Compound T0901317]
circulating and liver triglyceride levels [2]: increased circulating and liver triglyceride levels
